# From patent US20240376148A1, “MEDICAMENT FOR INHIBITING DIETARY OBESITY AND POLYPEPTIDE USED THEREFOR” (INSTITUTE OF ZOOLOGY, CHINESE ACADEMY OF SCIENCES, priority 2022, published 2024)
# Assays:
# [1] = system: fecal flora; experiment: 16s amplicon sequencing of fecal flora of SPF mice; format: in vivo; conditions: SPF mice feces
# Procedure: At this time, in order to further confirm whether the reason for the weight loss of the SPF mice was related to the change of the ecological structure of the intestinal flora, the feces of mice in NC, HFD and D3 groups collected in the previous SPF mice experiment were analyzed by 16 s amplicon sequencing. sequencing method (reference: Quan, LH, et al. Myristoleic acid produced by enterococci reduces obesity through brown adipose tissue activation. Gut 69, 1239-1247 (2020).) was used to analyze the fecal flora of mice.
# [2] = GF mice experiment (high-fat diet); format: in vivo, Germ-free (GF) C57B1/6 mice
# From the text: To further determine the relative contribution of the microbiota to the anti-obesity effects of HD, D3 was chosen for GF mice experiment.
# Germ-free (GF) C57B1/6 mice were used in the GF mice experiment, kept in a germ-free isolator, and their GF status was verified by fecal PCR every month. At the beginning of the experiment, germ-free (GF) C57B1/6 mice were 4 weeks old, each weighed 14±1 g. They were raised in a room with suitable temperature and humidity control, and the light/dark cycle was 12 hours, free diet and drinking water, and fed with standard laboratory feed (growth and reproduction feed, SPFSLFZ003, product of SPF (Beijing) Experimental Animal Technology Co., Ltd.), after one week of adaptation, they were randomly assigned to each cage, 4-6 mice per cage. A total of 3 treatments were set up, each with 1 cage, and each treatment was subjected to different feeding treatments, specifically as follows:
# NC group (i.e. normal diet group): fed with standard laboratory feed (also known as growth and reproduction feed, SPFSLFZ003), free diet and drinking water for 8 weeks.
# HFD group (i.e. high-fat diet group): fed with high-fat diet, the high-fat diet used was rodent feed (containing 60 kcal % fat, D12492), free diet and drinking water for 8 weeks.
# D3 group (i.e. high-fat diet+D3 medicine intragastric administration group): fed with high-fat diet, free diet and drinking water. Intragastrically administrated with D3 medicine, 0.75 mg-3 mg/Kg body weight, 0.2 ml, once/day for 8 weeks.
# Food intake and body weight were monitored weekly.
# After the experiment on GF mice, the mice were killed by cervical dislocation. The heart, liver, spleen, lung, kidney, blood, ileum, cecum, and colon were harvested, immediately placed in liquid nitrogen, and stored at −80° C. for further analysis. Precisely dissected and subcutaneous and visceral fat deposits were weighed.
# [3] = Macaque experiment (high-fat diet); format: in vivo; conditions: rhesus monkeys, high-fat diet (45 kcal % fat), intragastric 0.5 mg-1 mg/Kg once/day, after 6 weeks
# Procedure: Rhesus monkeys were used in the macaque experiment. 9 in total, […] at the beginning of the experiment, and each weighed 2.5±0.5 Kg. They were raised individually in the same environment, in a room with suitable temperature and humidity control, and the light/dark cycle was 12 hours, free diet and drinking water, and fed with standard laboratory feed (#2150230401). After 7 days of adaptation, they were randomly assigned to 3 groups with 3 animals in each group, and each group was subjected to different feeding treatments, specifically as follows (see figure e of FIG. 7):
# NC group (i.e. normal diet group): fed with standard laboratory feed (#2150230401), free diet and drinking water for 6 weeks.
# HFD group (i.e. high-fat diet group): fed with high-fat diet (45 kcal % fat), free diet and drinking water for 6 weeks.
# D3 group (i.e. high-fat diet+D3 medicine intragastric administration group): fed with high-fat diet (45 kcal % fat), free diet and drinking water for 6 weeks. HD medicines were selected as D3, intragastrically administrated with D3, 0.5 mg-1 mg/Kg body weight, and intragastrically administrated according to 1.7 ml/Kg body weight, once/day.
# Food intake (unit: g/only/week) and body weight were monitored weekly. Fresh excreta of the above animals were collected and stored at −80° C. for further analysis of macaque fecal flora (method as above).
# [4] = system: A. muciniphila; experiment: qPCR of abundance of A. muciniphila in intestine of rhesus monkeys; format: in vivo; conditions: macaque, p<0.05
# From the text: FIGS. 7A-7H are a graph showing the effect of using D3 on rats and rhesus monkeys in Example 2 of the present invention. FIG. 7A is the schematic diagram of sampling time point in rats; FIG. 7B is the graph showing the results of the growth rate of body weight with different feeding treatments of the rat; FIG. 7C is the graph showing the results of the short-term feed intake measurement of the rat; FIG. 7D is the graph showing the results of the qPCR detection of the abundance of A. muciniphila in intestine of rats with different feeding treatment; FIG. 7E is a schematic diagram of the sampling time point in rhesus monkeys; FIG. 7F is the graph showing the results of the growth rate of body weight with different feeding treatments of rhesus monkeys; FIG. 7G is the feed intake monitoring graphs of rhesus monkeys with different feeding treatments; FIG. 7H is the graph showing the results of the qPCR detection of the abundance of A. muciniphila in intestine of rhesus monkeys with different feeding treatment. The data shown in the figure are mean±standard deviation, the number of repetitions is 5-10, and the significant difference of each group is analyzed by Wilcoxon test. * representing a significance analysis result of P<0.05, ** representing a significance analysis result of P<0.01.
# Food intake (unit: g/only/week) and body weight were monitored weekly. […]
# [5] = Rat feeding experiment (high-fat diet); format: in vivo, Sprague Dawley (SD) rats; conditions: SD rats, 10 weeks
# Procedure: Sprague Dawley (SD) rats were used in the rat experiment. At the beginning of the experiment, the rats were 4 weeks old, and each weighed 137±5 g. They were raised in a room with suitable temperature and humidity control, and the light/dark cycle was 12 hours, free diet and drinking water, and fed with standard laboratory feed (a growth and reproduction feed, SPFSLFZ003). After one week of adaptation, they were randomly assigned to a cage. HD treatment was represented by D3, a total of 3 treatments were set up, and each treatment was subjected to different feeding treatments, specifically as follows (see figure a of FIG. 7):
# NC group (i.e. normal diet group): 8 rats were fed with standard laboratory feed (also known as growth and reproduction feed, SPFSLFZ003), free diet and drinking water for 10 weeks.
# HFD group (i.e. high-fat diet group): 8 rats were fed with high-fat diet, the high-fat diet used was rodent feed (containing 60 kcal % fat, D12492), free diet and drinking water for 10 weeks.
# D3 group (i.e. high-fat diet+D3 medicine intragastric administration group): 10 rats were fed with high-fat diet, free diet and drinking water. Intragastrically administrated with HD (choose D3), 0.5 mg-2 mg/Kg body weight, 0.5 ml, once/day for 10 weeks.
# Body weights were monitored weekly. […]
sequence,measurement,setting,value
RTRYCRTGR [D3],abundance of Bacteroides and A. muciniphila (LEfSc analysis),[1],significant increase
same,"abundance of Prevotella, Desulfovibrio and Lawsonia (LEfSc analysis)",[1],significant decrease
same,fecal flora (diversity analysis and PCOA) vs HFD group,[1],significantly different from that of the HFD group
same,"subcutaneous and visceral fat weight (inguinal subcutaneous, epididymis, perinephric) vs HFD group",[2]; 8 weeks,significantly lower than that of the HFD group
same,weekly feed intake vs control HFD group,[2]; after 3-4 weeks,significant gap
same,body weight compared with the HFD group,"[2]; intragastric 0.75 mg-3 mg/Kg once/day, 8 weeks",decreased significantly
same,growth rate of body weight,[3],decreased significantly
same,relative abundance of A. muciniphila in the intestine by qPCR,[4],significantly increased
same,decrease of growth rate of body weight,[5]; vs HFD group,8.96±3.11%
same,body weight compared with the HFD group,[5]; intragastric 0.5 mg-2 mg/Kg once/day,significantly lower than that of the HFD group
